melting point	Structure (SMILES)
103 to 104 °C	Cc1nc(-c2ccc(CBr)cc2)no1
157 °C	CC(c1cc2ccccc2s1)N(O)C(N)=O (centres undefined)
194 to 196 °C	FC(F)(F)c1ccc(-n2cc[nH]c2=S)cc1
314 °C	S=c1nnc(-c2ccccc2)c(Nc2ccccc2Cl)[nH]1
316 °C	O=c1c(O)c(-c2ccc(O)c(O)c2)oc2cc(O)cc(O)c12
267 °C	NS(=O)(=O)c1cc2c(cc1Cl)CN(C1CCCCC1)C2=O
36.5 °C	O=S(=O)(Cl)c1ccc(F)cc1
137 °C	Cc1ccc(-c2csc(N)n2)cc1
93 °C	Cc1ccc(C(=S)N2CCCCC2)cc1
142 °C	O=C(Nc1ccc(Cl)cc1)c1cc(Cl)cc(Cl)c1O
225 to 233 °C	Cc1nc2ccccc2c(C(=O)O)c1C(=O)O
59 to 64 °C	c1cncc(Cn2cccc2)c1
59 to 65 °C	OCCc1c(Cl)cccc1Cl
167 °C	O=C(O)c1cccc(-c2ccccc2)c1
84 to 90 °C	ON=C(CBr)c1ccc(F)cc1
64 to 67 °C	COC(=O)[C@@H](C)Oc1ccc(O)cc1
105 to 109 °C	Cc1ccc(S(=O)(=O)NC(Cc2ccccc2)C(=O)CCl)cc1 (centres undefined)
261 to 263 °C	O=C(O)c1cncc(-c2ccco2)c1
-34 °C	CCCCCCc1ccc2c(c1)CCC2
222 °C	CC=CC1=C(C(=O)O)N2C(=O)C(NC(=O)C(N)c3ccc(O)cc3)C2SC1 (centres undefined)
59 to 60 °C	CC1(C)Cc2cccc(CO)c2O1
52 to 53 °C	COc1ccc(-c2noc(CCl)n2)cc1
76 to 77 °C	Cc1c(C=O)cnn1-c1ccccc1
127 °C	COc1cc(N)ccc1[N+](=O)[O-]
208 to 210 °C	Cc1cc(C)n2nc(N)c(Cc3ccc(F)cc3)c2n1
44 °C	Cc1ccc([N+](=O)[O-])cc1S(=O)(=O)Cl
320 °C	Cc1nc(C)c(Cl)c(O)c1Cl

melting point	Structure (SMILES)
40 °C	N#CC1=Cc2ccccc2C1
68 °C	CC(=O)Oc1ccc(OC(C)=O)c(-c2ccccc2)c1
81 to 83 °C	Cc1ccc(COc2cccc(F)c2C#N)cc1
83.5 °C	ONc1ccccc1
80 to 82 °C	O=C(Cl)c1ccc(Oc2ccccc2)nc1
160 °C	O=C(O)COc1nn(Cc2ccccc2)c2ccccc12
58 °C	Fc1cc(I)ccn1
64 to 67 °C	Cc1noc(-c2ccccc2CBr)n1
> 200 °C	O=C(CNc1ccccc1)c1ccc(C(=O)CNc2ccccc2)cc1
196 °C	CC(C)(C)N(NC(=O)c1ccccc1)C(=O)c1ccccc1Br
252 °C	O=C(Nc1cc([N+](=O)[O-])ccc1C(=O)O)c1ccccc1
133 °C	CCN(CCO)c1ccc(N=Nc2ccc([N+](=O)[O-])cc2Cl)cc1
78 °C	O=C1c2ccccc2C(=O)N1CCCO
260 to 262 °C	O=C(O)c1ccc(Cn2cnc3ccccc32)cc1
138 °C	CC1=NN(c2ccc(C)cc2)C(=O)C1
263 to 268 °C	Cc1nc(-c2ccc(C(=O)O)cc2)cs1
250 to 253 °C	N=C(N)N[C@@H](Cc1ccccc1)C(=O)O
34 to 37 °C	COC(=O)c1ccc(C)nc1
145 to 155 °C	NC(=S)c1ccc2c(c1)CCO2
46 °C	S=C=Nc1cc(Cl)cc(Cl)c1
60 to 61 °C	O=Cc1cc(-c2ccco2)on1
210 °C	O=[N+]([O-])c1ccc2[nH]ncc2c1
120 to 121 °C	CC(C)CN1C(=O)N2CCc3ccccc3C2(c2ccc(Cl)cc2)C1=O (centres undefined)
186 to 188 °C	COc1cc2c(cc1OC)C(c1ccccc1Cl)N(C(C)=O)CC2 (centres undefined)
103 °C	O=C(Oc1ccccc1)n1c(C(F)(F)F)nc2cc(Cl)c(Cl)cc21
195 °C	Cc1ccc2nc(-c3ccc(N)cc3)sc2c1
135 °C	COc1ccc(C=CC(=O)c2cccc(C(=O)C=Cc3ccc(OC)cc3)c2)cc1

melting point	Structure (SMILES)
61 °C	Cc1ccc2ccc(C)nc2c1
170 °C	CC(C)(C#N)Nc1nc(Cl)nc(NC2CC2)n1
175 °C	N#C/C(=N/Nc1ccccc1)c1nc(-c2ccccc2)cs1
147 to 149 °C	COC(=O)c1sc(-c2ccccc2)cc1N
178 to 179 °C	CN1C(=O)c2ccc([N+](=O)[O-])cc2C1=O
239 °C	NS(=O)(=O)c1cc2c(cc1Cl)NC(Cc1ccc(F)cc1)NS2(=O)=O (centres undefined)
54 to 57 °C	OCc1ccccc1N1CCOCC1
77 °C	O=C1CC(c2ccccc2)c2ccccc21 (centres undefined)
97 °C	O=C(c1ccc(F)cc1)c1cccs1
238 °C	Cc1cc(C(F)(F)F)n2nc(N)c(/N=N/c3ccccc3Cl)c2n1
87 °C	Cc1cc2ccccc2c(-c2ccccc2)n1
108 °C	COc1c(Cl)c(Cl)c(Cl)c(Cl)c1Cl
150 °C	c1ccc(C2=NN(c3ccccc3)CN2c2ccccc2)cc1
55 to 60 °C	OCc1cccc(OCCN2CCOCC2)c1
68 °C	Cc1ccc2nc(C)cc(C)c2c1
63 to 64 °C	Brc1cccc(-n2cccc2)c1
94 °C	O=C(NC(CO)Cc1ccccc1)OCc1ccccc1 (centres undefined)
120 °C	N#Cc1ccc(N=C=S)cc1
142 °C	Cc1ccccc1C=C1C(=O)OC(C)(C)OC1=O
135 °C	CCOC(=O)Nc1ccc2cc3ccc(N)c(CO)c3nc2c1
244 °C	CNC1CCC(c2ccc(Cl)c(Cl)c2)c2ccccc21 (centres undefined)
320 to 325 °C	Oc1noc2nc3ccccc3nc12
215 °C	CCOC(=O)C1=C(C)OC(N)=C(c2nc3ccccc3s2)C1c1ccc(N(C)C)cc1 (centres undefined)
46 °C	COc1ccc(CCO)cc1OC
152 to 154 °C	OCC1OC(n2cnc3c(NCc4ccco4)ncnc32)C(O)C1O (centres undefined)
133 to 136 °C	NS(=O)(=O)c1ccc(Sc2ccc(Cl)cc2)s1

More lines, now with the values behind:

Structure (SMILES)	melting point
CC1=CCCC(C)(C)C1/C=C/C(C)=C/C=C/C(C)=C/C=C/C=C(C)/C=C/C=C(C)/C=C/C1=C(C)CCCC1(C)C (centres undefined)	188 °C
FC(F)(F)C(F)(Cl)C(Cl)(Cl)C(F)(F)F (centres undefined)	4 °C
CCCCCCNC(=O)n1cc(F)c(=O)[nH]c1=O	110 °C
CC(C)N(C(=O)SCC(Cl)=CCl)C(C)C	25 °C
COC(=O)c1cc(C=O)oc1C	83 °C
CCCCC(O)(CCCC)CCCC	20 °C
CCCCC(CC)CC	-115 °C
CC(=O)OC[C@H]1O[C@@H](OC(C)=O)[C@H](OC(C)=O)[C@@H]1OC(C)=O	79 to 81 °C
CN1C(=O)C=CC1=O	95 °C
COc1cc2c(cc1OCc1ccccc1)C(C)N(C)CC2 (centres undefined)	82 °C
Cn1ncc(Br)c1C=O	70 °C
COc1cc(C=CC(=O)O)cc(Br)c1O	256 °C
O=C(O)CN(CCO)CC(=O)O	178 °C
OC1CSC(O)CS1 (centres undefined)	108 to 145 °C
NNC(=O)C(F)(F)F	111 to 115 °C
Cc1occc1C(=O)CC#N	95 to 97 °C
Cc1cc2c(c(C)c1C)CC2=O	86 °C
O=C1CCCCCCN1	36.5 °C
CC1CCOS(=O)O1 (centres undefined)	5 °C
OCC(CO)(CO)NCCCNC(CO)(CO)CO	169 °C
O=C1CCCCCCCCC1=O	40.5 °C
OCCCC#CC#CCCCO	45.5 to 47 °C
CC(C)(C)OC(=O)N1CSC[C@H]1C(=O)O	132 to 136 °C
O=C(Nc1ccccc1)N(Cc1ccc(Cl)cc1)C1CCCC1	132 °C
O=C(O)c1ccnc(N2CCCCC2)c1	167 to 168 °C
CCCCCCCCCCCC(=O)OCCOC(=O)CCCCCCCCCCC	56.6 °C
CCOP(=S)(OCC)SCn1nnc2ccccc2c1=O	53 °C

Structure (SMILES)	melting point
Nc1ncccc1O	170 to 176 °C
Clc1ccc(C2(Cn3cncn3)CC(Br)CO2)c(Cl)c1 (centres undefined)	84 °C
ClC1=C(Cl)C2(Cl)C3C4C=CC(C4)C3C1(Cl)C2(Cl)Cl (centres undefined)	240 °C
COC(=O)c1cc(C)n(CO)n1	89 °C
CC(C)(C)OC(=O)N1CCNCC1	47 to 49 °C
O=C(Nc1ccc([N+](=O)[O-])cc1Br)C1(F)C(F)(F)C(F)(F)C(F)(F)C(F)(F)C1(F)F	102 °C
O=CCO	97 °C
S=C=Nc1ccc(I)cc1	76 to 78 °C
Cc1c(N)cc([N+](=O)[O-])cc1[N+](=O)[O-]	174 °C
Fc1c(F)c(F)c(S)c(F)c1F	-24 °C
CC1(C)C=[N+]([O-])C(C)(C)C1	53 to 59 °C
NS(=O)(=O)c1ccc(F)cc1C(F)(F)F	167 °C
CN(C)c1nncc(-c2cnnc(N(C)C)n2)n1	224 °C
CC(=O)OC(C)=O	-73 °C
O=Cc1ccncc1	-4 °C
CC(O)CNCCN (centres undefined)	-50 °C
CCCOc1ccc([N+](=O)[O-])cc1N	49 °C
CC1CCCC(C)C1O (centres undefined)	32.5 °C
COC(=O)CC(=O)c1cncc(Br)c1	88 to 93 °C
Nc1nc(O)nc2[nH]cnc12	300 °C
CC(C)(C)OC(=O)N1CCN(c2ccc(C=O)cn2)CC1	126 to 128 °C
CCN(CC)C(N)=O	66 to 71 °C
CC12CC3CC(C1)CC(C)(C3)C2	-30 °C
C[C@]12CCC(=O)C[C@H]1CC[C@H]1[C@H]3CCC(=O)[C@@]3(C)CC[C@@H]12	179 to 180 °C
CC1(C)C2CCC1(C)C(O)C2CCO (centres undefined)	83 °C
CC1=CC(=O)CC(=O)O1	188 °C
Cc1cc(C)c(OC(=O)C(F)(F)F)cc1OC(=O)C(F)(F)F	121 °C

— a melting point compilation (Tetko et al.)
